The text below walks through data of PMC1479381, “Uncharged isocoumarin-based inhibitors of urokinase-type plasminogen activator” (BMC Chemical Biology, 2006).

In one data set the target is T1, human uPA (Homo sapiens, UniProt P00749).
T1 construct: purchased Sigma/Aldrich, St. Louis, MO
Kind of data set: Kinetic inhibition of human urokinase, Spectrozyme UK substrate, initial rates at 405 nm. It is filed as biochemical. As to conditions: for Ki: 0.1 M Tris, pH 8.8, 25°C, Spectrozyme UK 10 μM to 150 μM, read-out: Ki, dissociation constant for inhibition of human uPA; for fold improvement in Ki over compound 4d: compared with unsubstituted 4d. As for the experimental part: Human urokinase (Sigma/Aldrich, St. Louis, MO) and Spectrozyme UK (American Diagnostica, Stamford, CT) were used for the kinetic studies. Enzyme activity was routinely measured in 1 ml volumes of 0.1 M Tris, pH 8.8, Spectrozyme UK (10 μM to 150 μM) and 0.64 μg (3,770 units/mg protein) human urokinase. Reactions were monitored at 405 nm, 25°C, with a Perkin/Elmer Lambda S2 UV/vis spectrophotometer. Michaelis constants and Ki values were determined from initial rate data, measured at 8 to 10 substrate concentrations, by non-linear regression analysis with SigmaPlot's Enzyme Kinetics Module™ (Chicago, IL, USA).

In general, Ki refers to a measure of affinity in units of concentration, obtained from inhibition or displacement. As a reminder, the melting point is the temperature of the solid-liquid transition.

The structures appear in SMILES notation. Structures can show the parent of a compound that is named as a salt.

Compound `O=c1oc(OCCBr)c(Cl)c2ccc([N+](=O)[O-])cc12` [Compound 4a, 3-(2-Bromoethoxy)-4-chloro-7-nitro-1H-isochromen-1-one] displayed a melting point of 126 to 128 °C. For the same compound, the Ki on human uPA was 1.8 ± 0.2 µM.
`O=c1oc(OCCCBr)c(Cl)c2ccc([N+](=O)[O-])cc12` [Compound 4b, 3-(3-Bromopropoxy)-4-chloro-7-nitro-1H-isochromen-1-one] displayed a melting point of 131 to 134 °C. Further, on human uPA, the Ki amounted to 2.4 ± 0.2 µM and the “fold improvement in Ki over compound 4d” value is 4 fold.
Consider `O=c1oc(OCCBr)c(Cl)c2ccccc12` [Compound 4c, 3-(2-Bromoethoxy)-4-chloro-1H-isochromen-1-one], for which the melting point is 81 to 82 °C. Besides, the Ki on human uPA amounted to 14 ± 1 µM.
Compound `O=c1oc(OCCCBr)c(Cl)c2ccccc12` [Compound 4d, 3-(3-Bromopropoxy)-4-chloro-1H-isochromen-1-one] gave a melting point of 95 to 97 °C. At human uPA, the inhibition constant Ki turned out to be 9 ± 1 µM. Besides, the “type of inhibition of uPA” value at human uPA (kinetic studies) was “simple competitive inhibition”.
With `O=c1oc(OCCCCBr)c(Cl)c2ccccc12` [Compound 4e, 3-(4-Bromobutoxy)-4-chloro-1H-isochromen-1-one], the melting point was in the range of 75 to 77 °C. For the same compound, at human uPA, the Ki came to 18 ± 2 µM.
On to `Br.N=C(N)SCCOc1oc(=O)c2ccccc2c1Cl` [Compound 5c, 2-[2-(4-Chloro-1-oxo-1H-isochromen-3-yloxy)ethyl]isothiourea hydrobromide], for which the melting point lay within 168 to 170 °C. Also, the inhibitory constant (Ki) at human uPA came out at 0.033 ± 0.004 µM.
Consider `Br.N=C(N)SCCCOc1oc(=O)c2ccccc2c1Cl` [Compound 5d, 2-[3-(4-Chloro-1-oxo-1H-isochromen-3-yloxy)propyl]isothiourea hydrobromide], for which the melting point lay in the range of 159 to 163 °C. For the same compound, the Ki on human uPA came to 0.055 ± 0.003 µM.
On to `N=C(N)SCCCCOc1oc(=O)c2ccccc2c1Cl` [Compound 5e, 2-[4-(4-Chloro-1-oxo-1H-isochromen-3-yloxy)butyl]isothiourea hydrobromide], for which the Ki on human uPA was 0.14 ± 0.02 µM.
On to `Nc1ccc2c(Cl)c(OCCBr)oc(=O)c2c1` [Compound 6a, 7-Amino-3-(2-bromoethoxy)-4-chloro-1H-isochromen-1-one], for which the melting point lay in the range of 134 to 136 °C. Also, the Ki on human uPA worked out at 12 ± 1 µM.
In turn, `Nc1ccc2c(Cl)c(OCCCBr)oc(=O)c2c1` [Compound 6b, 7-Amino-3-(3-bromopropoxy)-4-chloro-1H-isochromen-1-one] registered a melting point of 106 to 107 °C. The Ki on human uPA is 9.5 ± 1 µM.
For the compound `N=C(N)SCCOc1oc(=O)c2cc(N)ccc2c1Cl` [Compound 7a, 2-[2-(7-amino-4-chloro-1-oxo-1H-isochromen-3-yloxy)ethyl]isothiourea hydrobromide], the Ki on human uPA was 0.02 ± 0.003 µM.
In turn, `Br.N=C(N)SCCCOc1oc(=O)c2cc(N)ccc2c1Cl` [Compound 7b, 2-[3-(7-Amino-4-chloro-1-oxo-1H-isochromen-3-yloxy)propyl]isothiourea hydrobromide] showed a melting point of 173 °C. For the same compound, the Ki on human uPA was 0.038 ± 0.005 µM.
The compound `O=C(Nc1ccc2c(Cl)c(OCCBr)oc(=O)c2c1)c1ccccc1` [Compound 8a, N-[3-(2-Bromoethoxy)-4-chloro-1-oxo-1H-isochromen-7-yl]benzamide] displayed a melting point of 214 to 216 °C. Besides, the Ki on human uPA stood at 1.4 ± 0.2 µM.
In turn, `O=C(Nc1ccc2c(Cl)c(OCCCBr)oc(=O)c2c1)c1ccccc1` [Compound 8b, N-[3-(3-Bromopropoxy)-4-chloro-1-oxo-1H-isochromen-7-yl]benzamide] registered a melting point of 193 to 194 °C. On human uPA, the Ki came out at 0.034 ± 0.002 µM and the “fold improvement in Ki over compound 4d” value came to 300 fold.
Consider `Br.N=C(N)SCCOc1oc(=O)c2cc(NC(=O)c3ccccc3)ccc2c1Cl` [Compound 9a, 2-[2-(7-Benzamido-4-chloro-1-oxo-1H-isochromen-3-yloxy)ethyl]isothiourea hydrobromide], for which the melting point was in the range of 173 to 175 °C. For the same compound, the inhibition constant Ki at human uPA was 0.084 ± 0.007 µM.
As for `Br.N=C(N)SCCCOc1oc(=O)c2cc(NC(=O)c3ccccc3)ccc2c1Cl` [Compound 9b, 2-[3-(7-Benzamido-4-chloro-1-oxo-1H-isochromen-3-yloxy]propyl)isothiourea hydrobromide], the melting point was in the range of 203 to 204 °C. The Ki on human uPA came out at 0.01 ± 0.008 µM.
For the compound `O=c1oc(OCCBr)cc2ccc([N+](=O)[O-])cc12` [Compound 10a, 3-(2-Bromoethoxy)-7-nitro-1H-isochromen-1-one], the melting point lay within 95 to 97 °C. In addition, the Ki on human uPA was found to be 4.2 ± 0.4 µM.
As to `O=c1oc(OCCCBr)cc2ccc([N+](=O)[O-])cc12` [Compound 10b, 3-(3-Bromopropoxy)-7-nitro-1H-isochromen-1-one], the melting point lay in the range of 117 to 118 °C. Also, the Ki at human uPA came to 4.3 ± 0.3 µM.
The compound `O=C(c1c(OCCCBr)oc(=O)c2ccccc12)C(F)(F)F` [Compound 10c, 3-(3-Bromopropoxy)-4-trifluoroacetyl-1H-isochromen-1-one] yielded a melting point of 116 to 117 °C. At human uPA, the Ki was 14 ± 2 µM.
For the compound `Nc1ccc2cc(OCCBr)oc(=O)c2c1` [Compound 11, 7-Amino-3-(2-bromoethoxy)-1H-isochromen-1-one], the melting point was more than 280 °C. Moreover, on human uPA, the Ki was 65 ± 9 µM.
